Assay results from ChEMBL document CHEMBL3352253, “ApoE secretion modulating bromotyrosine derivative from the Australian marine sponge Callyspongia sp” (2014).

Test system: CCF-STTG1
Assay: Induction of apolipoprotein E secretion in human CCF-STTG1 cells at 40 uM after 96 hrs by ELSA relative to control
Assay type: functional

Question: Which “fold change (FC)” value does the source give for `COc1c(Br)cc(CC(=O)C(=O)O)cc1Br` here?
Answer: Its value is 1.
